Type in all cases: in vivo
The subject of experiment [1] is Stellaria media. Kind of experiment: Herbicidal pre-emergence action (Method B) against STEME. The note with it: 504 h; for pest or weed control at 320 g/ha: dosage 320 g/ha; for pest or weed control at 1280 g/ha: dosage 1280 g/ha. An excerpt:
(§1) Method B: Herbicidal Pre-Emergence Action Seeds of mono- and dicotyledonous weed plants are placed in plastic pots in sandy loam soil (doubly sown with one species each of mono- or dicotyledonous weed plants per pot) and covered with soil. The compounds of the invention, formulated in the form of wettable powders (WP) or as emulsion concentrates (EC), are then applied onto the surface of the covering soil as aqueous suspension or emulsion with addition of 0.5% additive at a water application rate equivalent to 600 liters per hectare. After the treatment, the pots are placed in a greenhouse and kept under good growth conditions for the trial plants. After about 3 weeks, the effect of the preparations is scored visually in comparison with untreated controls as percentages. For example, 100% action=the plants have died, 0% action=like control plants.

The test system of experiment [2] is Lolium rigidum. In words: Herbicidal pre-emergence action (Method B) against LOLRI. The note with it: 504 h, scored visually after about 3 weeks vs untreated controls.
Description: as §1

Experiment [3] has as its system Echinochloa crus-galli. In words: Herbicidal pre-emergence action (Method B) against ECHCG. Particulars: 504 h, scored visually after about 3 weeks vs untreated controls.
Description: as §1

The test system of experiment [4] is Poa annua. In words: Herbicidal post-emergence action (Method A) against POAAN. Particulars: 504 h, rated visually after about 3 weeks vs untreated controls; for pest or weed control at 320 g/ha: read-out: Post-emergence action at 320 g/ha against POANN; for pest or weed control at 1280 g/ha: read-out: Post-emergence action at 1280 g/ha against POANN. As to the method:
(§2) Method A: Herbicidal Post-Emergence Action Seeds of mono- and dicotyledonous weed plants are placed in plastic pots in sandy loam soil (twin sowing with one species each of mono- or dicotyledonous weed plants per pot), covered with soil and cultivated in a greenhouse under controlled growth conditions. 2 to 3 weeks after sowing, the test plants are treated at the one-leaf stage. The compounds of the invention, formulated in the form of wettable powders (WP) or as emulsion concentrates (EC), are applied to the green parts of the plants as aqueous suspension or emulsion with addition of 0.5% additive at a water application rate equivalent to 600 liters per hectare. After the test plants have been kept in the greenhouse under optimum growth conditions for about 3 weeks, the activity of the preparations is rated visually in comparison to untreated controls. For example, 100% activity=the plants have died, 0% activity=like control plants.

In experiment [5] the test system is Lolium rigidum. In words: Herbicidal post-emergence action (Method A) against LOLRI. The note with it: rated visually after about 3 weeks vs untreated controls; for pest or weed control at 1280 g/ha: Lolium rigidum, post-emergence, 504 h. Here is the method: as §2
Experiment [6] relates to Stellaria media. Kind of experiment: Herbicidal post-emergence action (Method A) against STEME. Particulars: 504 h, rated visually after about 3 weeks vs untreated controls. As to the method:
as §2

Experiment [7] relates to Matricaria inodora. Kind of experiment: Herbicidal post-emergence action (Method A) against MATIN. Particulars: 1280 g/ha; rated visually after about 3 weeks vs untreated controls. Here is the method: as §2
The subject of experiment [8] is Poa annua. Kind of experiment: Herbicidal pre-emergence action (Method B) against POAAN. The note with it: 504 h, scored visually after about 3 weeks vs untreated controls.
Description: as §1

The next experiment relates to Amaranthus retroflexus. In words: Herbicidal post-emergence action (Method A) against AMARE. The note with it: rated visually after about 3 weeks vs untreated controls. As to the method:
as §2

For experiment [9], the system named is Echinochloa crus-galli. In words: Herbicidal post-emergence action (Method A) against ECHCG. The note with it: rated visually after about 3 weeks vs untreated controls; for pest or weed control at 1280 g/ha: Echinochloa crus-galli, post-emergence, 504 h. As to the method: as §2
Experiment [10] deals with Abutilon theophrast. Kind of experiment: Herbicidal pre-emergence action (Method B) against ABUTH. The note with it: 1280 g/ha, scored visually after about 3 weeks vs untreated controls.
Description: as §1

For the next experiment, the system named is Setaria viridis. In words: Herbicidal pre-emergence action (Method B) against SETVI. The note with it: 1280 g/ha, scored visually after about 3 weeks vs untreated controls.
Description: as §1

Experiment [11] concerns Matricaria inodora. In words: Herbicidal pre-emergence action (Method B) against MATIN. The note with it: Tripleurospermum inodorum, 504 h, scored visually after about 3 weeks vs untreated controls.
Description: as §1

Experiment [12] relates to harmful plants. In words: Herbicidal pre-emergence action (Method B), summary statement. The note with it: summary of tables B1-B12 (Method B).
Description: as §1

The subject of experiment [13] is Abutilon theophrast. Kind of experiment: Herbicidal post-emergence action (Method A) against ABUTH. Particulars: rated visually after about 3 weeks vs untreated controls. Here is the method:
as §2

Experiment [14] relates to harmful plants. In words: Herbicidal post-emergence action (Method A), summary statement. The note with it: summary of tables A1-A11. Here is the method: as §2

Structures are written as SMILES.

The values that follow come from US20220033363A1, “HERBICIDALLY ACTIVE SUBSTITUTED PHENYLPYRIMIDINE HYDRAZIDES” (Bayer Aktiengesellschaft, priority 2018, published 2022).

For the compound `O=C(NNC(=O)c1nc(C2CC2)ncc1-c1ccccc1Cl)c1ccccn1` [Example I-527, 5-(2-chlorophenyl)-2-cyclopropyl-N′-(pyridin-2-ylcarbonyl)pyrimidine-4-carbohydrazide], the pest or weed control at 320 g/ha with Stellaria media [1] worked out at 100%; in the experiment with Lolium rigidum [2] it was 90%; in the experiment with Echinochloa crus-galli [3], 90%; in the experiment on Poa annua [4], 100%; with Stellaria media [6] it was 100%; in the experiment with Poa annua [8], 100%. Moreover, the pest or weed control at 1280 g/ha with Stellaria media [1], with Lolium rigidum [2], in the experiment with Echinochloa crus-galli [3], in the experiment with Poa annua [4], in the experiment on Lolium rigidum [5] and in the experiment on Stellaria media [6] was 100% throughout. Further, the pest or weed control at 1280 g/ha came to 100% with Poa annua [8] and 90% in the experiment on Echinochloa crus-galli [9]. Further, in the experiment on Lolium rigidum [5], the “Post-emergence action at 320 g/ha against LOLRI” value is 100%. For the same compound, the “Post-emergence action at 1280 g/ha against MATIN” value in the experiment on Matricaria inodora [7] was found to be 90%. For the same compound, in the experiment with Amaranthus retroflexus, the “Post-emergence action at 1280 g/ha against AMARE” value is recorded as 100%. Besides, the “Pre-emergence action against ABUTH” value in the experiment with Abutilon theophrast [10] was 90%.

Turning to `O=C(NNc1ccccn1)c1nc(C2CC2)ncc1-c1ccccc1Cl` [Example I-510, 5-(2-chlorophenyl)-2-cyclopropyl-N′-(pyridin-2-yl)pyrimidine-4-carbohydrazide], the pest or weed control at 320 g/ha with Stellaria media [1], in the experiment with Lolium rigidum [2], in the experiment with Echinochloa crus-galli [3], in the experiment with Poa annua [4], in the experiment with Stellaria media [6] and in the experiment with Matricaria inodora [11] was 100% each time. In the experiment with Poa annua [8], the pest or weed control at 320 g/ha was 100%. Also, the pest or weed control at 1280 g/ha in the experiment on Stellaria media [1] came out at 100%; with Lolium rigidum [2], 100%; with Echinochloa crus-galli [3], 100%; in the experiment with Poa annua [4], 100%; in the experiment with Lolium rigidum [5], 90%; in the experiment on Stellaria media [6], 100%. Also, the pest or weed control at 1280 g/ha with Matricaria inodora [11] came to 100%; in the experiment on Poa annua [8], 100%; with Echinochloa crus-galli [9], 90%. Also, the “Post-emergence action at 320 g/ha against LOLRI” value in the experiment on Lolium rigidum [5] amounted to 90%. Also, the “Pre-emergence action against SETVI” value in the experiment on Setaria viridis is given as 90%. The “Post-emergence action at 1280 g/ha against MATIN” value in the experiment on Matricaria inodora [7] stood at 90%. Further, in the experiment with Amaranthus retroflexus, the “Post-emergence action at 1280 g/ha against AMARE” value was 100%. In the experiment with Echinochloa crus-galli [9], the “Post-emergence action at 320 g/ha against ECHCG” value is on record as 90%.

For the compound `NNC(=O)c1nc(C2CC2)ncc1-c1ccccc1Cl` [Example I-497, 5-(2-chlorophenyl)-2-cyclopropylpyrimidine-4-carbohydrazide], the pest or weed control at 320 g/ha amounted to 100% in the experiment on Stellaria media [1]; 90% in the experiment on Lolium rigidum [2]; 100% in the experiment with Echinochloa crus-galli [3]; 100% with Poa annua [4]; 100% with Stellaria media [6]; 100% with Matricaria inodora [11]. The pest or weed control at 320 g/ha with Poa annua [8] is 100%. For the same compound, the pest or weed control at 1280 g/ha in the experiment with Stellaria media [1], in the experiment on Lolium rigidum [2], in the experiment with Echinochloa crus-galli [3], in the experiment on Poa annua [4], in the experiment on Lolium rigidum [5] and in the experiment with Stellaria media [6] was 100% each time. Further, the pest or weed control at 1280 g/ha in the experiment on Matricaria inodora [11], in the experiment on Poa annua [8] and with Echinochloa crus-galli [9] was 100% each time. For the same compound, the “Pre-emergence action against SETVI” value in the experiment with Setaria viridis is listed as 90%. Besides, in the experiment with harmful plants [12], the “herbicidal efficacy against harmful plants in pre-emergence treatment” value is given as “good herbicidal efficacy”.

For `O=CNNC(=O)c1nc(C2CC2)ncc1-c1ccccc1Cl` [Example I-516, 5-(2-chlorophenyl)-2-cyclopropyl-N′-formylpyrimidine-4-carbohydrazide], the pest or weed control at 320 g/ha in the experiment with Stellaria media [1] came to 100%; in the experiment on Lolium rigidum [2], 100%; with Poa annua [4], 100%; in the experiment with Stellaria media [6], 90%; with Poa annua [8] it was 100%. Moreover, the pest or weed control at 1280 g/ha was found to be 100% with Stellaria media [1]; 100% with Lolium rigidum [2]; 100% with Echinochloa crus-galli [3]; 100% in the experiment on Poa annua [4]; 90% in the experiment on Lolium rigidum [5]; 100% in the experiment on Stellaria media [6]. Besides, the pest or weed control at 1280 g/ha in the experiment on Matricaria inodora [11], with Poa annua [8] and in the experiment on Echinochloa crus-galli [9] was 100% throughout. Further, in the experiment on Matricaria inodora [7], the “Post-emergence action at 1280 g/ha against MATIN” value worked out at 90%. Moreover, the “Post-emergence action at 1280 g/ha against ABUTH” value with Abutilon theophrast [13] is 100%. Moreover, the “herbicidal efficacy against harmful plants in the case of post-emergence treatment” value with harmful plants [14] was “good herbicidal efficacy”. Also, in the experiment on Echinochloa crus-galli [9], the “Post-emergence action at 320 g/ha against ECHCG” value amounted to 90%.

In the case of `CCNC(=O)NNC(=O)c1nc(C2CC2)ncc1-c1ccccc1Cl` [Example I-552, 2-{[5-(2-chlorophenyl)-2-cyclopropylpyrimidin-4-yl]carbonyl}-N-ethylhydrazinecarboxamide], the pest or weed control at 320 g/ha in the experiment with Stellaria media [1] is 100%; in the experiment with Lolium rigidum [2] it was 90%; with Poa annua [4], 100%; with Matricaria inodora [11], 90%; with Poa annua [8], 100%. In addition, the pest or weed control at 1280 g/ha with Stellaria media [1] was determined as 100%; in the experiment with Lolium rigidum [2] it was 90%; in the experiment on Echinochloa crus-galli [3], 90%; in the experiment on Poa annua [4], 100%; in the experiment with Lolium rigidum [5] it was 90%; in the experiment with Stellaria media [6], 100%. Moreover, the pest or weed control at 1280 g/ha in the experiment on Matricaria inodora [11], in the experiment on Poa annua [8] and in the experiment on Echinochloa crus-galli [9] was 100% in each case. Further, the “Post-emergence action at 320 g/ha against LOLRI” value in the experiment with Lolium rigidum [5] is reported as 90%. In addition, in the experiment on Matricaria inodora [7], the “Post-emergence action at 1280 g/ha against MATIN” value was found to be 90%. For the same compound, in the experiment on Echinochloa crus-galli [9], the “Post-emergence action at 320 g/ha against ECHCG” value amounted to 90%. Further, the “Pre-emergence action against ABUTH” value in the experiment on Abutilon theophrast [10] is 90%.
